The values that follow come from patent US20230219965A1 (KSQ Therapeutics, Inc., priority 2020, published 2023).

The target in one data set is USP1/UAF1 enzyme (Homo sapiens, UniProt O94782). The data set is described as follows: USP1/UAF1 deubiquitination assay (ubiquitin-rhodamine 110 substrate). In kind it is biochemical. The settings on record: read-out: USP1 IC50 (Ub-Rho). Put shortly:
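0.05 nM USP1/UAF1 was preincubated 10 min with compounds (dose response from 10 μM) in 50 mM Tris-HCl pH 7.8, 0.5 mM EDTA, 0.01% BSA, 1 mM DTT, 0.01% Tween-20. 150 nM ubiquitin-rhodamine 110 started the reaction, read kinetically 30 min at Ex480/Em540; IC50 by four-parameter fit versus no-enzyme and DMSO controls.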

Data set [1] has as its system Ub-PCNA levels in the nucleus of ES2 cells (USP1 activity). In words: ES2 Ub-PCNA immunofluorescence (IF) assay. In kind it is cell-based. The settings on record: Homo sapiens, ES-2; ES2 cells, 3 hours, Ub-PCNA immunofluorescence; read-out: USP1 IC50 (Ub-PCNA). Put shortly:
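Cells plated overnight, then compound-treated for 3 h at 37° C (0.3% DMSO final), methanol-fixed and stained with anti-Ub-PCNA plus DAPI. Per-nucleus Ub-PCNA intensity imaged; cells above the 95% cutoff of untreated wells counted as positive, and percent positive cells used to derive AC50.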

Data set [2] is described as follows: ADME solubility determination in PBS at pH 2.0 and pH 7.4. In kind it is physicochemical. The settings on record: phosphate buffered saline, 25 °C, thermodynamic from solid. In a few lines: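 Dried 10 mM DMSO stock residues taken up in PBS pH 7.4 or pH 2.0, shaken 24 h at 25° C. After centrifugation, supernatant quantified by LC-MS/MS against a standard of known concentration, with a dilution factor applied.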

A short description of data set [3]: Liver microsomal metabolic stability, rat liver microsomes (RLM). The settings on record: rat, liver microsomes, t1/2 (min) in RLM, 1 μM compound, 1 mg/mL microsomes, NADPH.
Data set [4] in a line: Liver microsomal metabolic stability, human liver microsomes (HLM). The settings on record: human, liver microsomes.
Description: Samples were prepared by adding 222.5 μL of a master solution (100 mM phosphate buffer and 1 mg/mL liver microsomes (HLM or RLM)) and 25 μL of a 10 mM NADPH solution to incubation plates, which were then warmed for 10 min. Each compound was separately dissolved in DMSO to prepare 10 mM stock solutions, which were then diluted to 100 μM with acetonitrile. A reaction was started by adding 2.5 μL of the 100 μM solution of each compound to separate incubation plates such that the final concentration of for each compound in each plate was 1 μM.
25 μL aliquots of each sample were taken at 0.5, 5, 10, 15, 20 and 30 minutes, and the reaction was stopped by adding 5 volumes of cold acetonitrile with IS (100 nM alprazolam, 200 nM caffeine and 100 nM tolbutamide). The samples were then centrifuged at 3,220 G for 30 minutes, and 100 μL of the supernatant fluid was mixed with 100 μL of ultra-pure H2O.
The samples were then analyzed by LC-MS/MS. Peak areas were determined from extracted ion chromatograms. Slope values (k) were determined by linear regression of the natural logarithm of the remaining percentage of the compound vs. incubation time curve. The in vitro half-life (in vitro t1/2) was determined from the slope value using the following equation:
Setting [5] is: pH 2, aqueous buffer, PBS pH 2.0, 25° C., read-out: Solubility at pH 2.0.
Where [6] appears, read: pH 7.4, aqueous buffer, PBS pH 7.4, 25° C., read-out: Solubility at pH 7.4.

pIC50: −log10 of the molar value. Where two headings read alike, the source gives them in different places.

Chain of USP1/UAF1 enzyme (O94782 whole entry): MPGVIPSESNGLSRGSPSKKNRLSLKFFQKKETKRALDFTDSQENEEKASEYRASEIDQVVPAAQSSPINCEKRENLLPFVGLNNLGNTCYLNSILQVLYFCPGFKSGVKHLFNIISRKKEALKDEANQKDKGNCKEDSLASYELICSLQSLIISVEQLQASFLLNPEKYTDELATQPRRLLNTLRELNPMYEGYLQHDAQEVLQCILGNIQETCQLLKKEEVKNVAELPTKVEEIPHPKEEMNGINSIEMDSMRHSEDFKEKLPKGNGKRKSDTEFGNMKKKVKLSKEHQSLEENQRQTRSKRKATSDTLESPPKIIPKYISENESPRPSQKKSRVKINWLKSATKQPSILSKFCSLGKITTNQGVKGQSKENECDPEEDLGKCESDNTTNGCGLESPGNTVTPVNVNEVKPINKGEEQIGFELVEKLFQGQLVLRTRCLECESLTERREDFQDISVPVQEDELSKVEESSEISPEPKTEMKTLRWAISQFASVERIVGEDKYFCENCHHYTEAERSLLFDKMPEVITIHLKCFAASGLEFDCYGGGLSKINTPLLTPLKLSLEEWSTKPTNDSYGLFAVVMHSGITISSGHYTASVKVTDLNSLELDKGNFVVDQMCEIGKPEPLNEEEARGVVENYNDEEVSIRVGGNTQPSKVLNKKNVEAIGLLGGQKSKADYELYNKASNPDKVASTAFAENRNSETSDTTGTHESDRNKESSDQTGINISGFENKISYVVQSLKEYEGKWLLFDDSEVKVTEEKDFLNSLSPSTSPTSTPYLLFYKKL
Chain of USP1/UAF1 enzyme (Q8TAF3 whole entry partner): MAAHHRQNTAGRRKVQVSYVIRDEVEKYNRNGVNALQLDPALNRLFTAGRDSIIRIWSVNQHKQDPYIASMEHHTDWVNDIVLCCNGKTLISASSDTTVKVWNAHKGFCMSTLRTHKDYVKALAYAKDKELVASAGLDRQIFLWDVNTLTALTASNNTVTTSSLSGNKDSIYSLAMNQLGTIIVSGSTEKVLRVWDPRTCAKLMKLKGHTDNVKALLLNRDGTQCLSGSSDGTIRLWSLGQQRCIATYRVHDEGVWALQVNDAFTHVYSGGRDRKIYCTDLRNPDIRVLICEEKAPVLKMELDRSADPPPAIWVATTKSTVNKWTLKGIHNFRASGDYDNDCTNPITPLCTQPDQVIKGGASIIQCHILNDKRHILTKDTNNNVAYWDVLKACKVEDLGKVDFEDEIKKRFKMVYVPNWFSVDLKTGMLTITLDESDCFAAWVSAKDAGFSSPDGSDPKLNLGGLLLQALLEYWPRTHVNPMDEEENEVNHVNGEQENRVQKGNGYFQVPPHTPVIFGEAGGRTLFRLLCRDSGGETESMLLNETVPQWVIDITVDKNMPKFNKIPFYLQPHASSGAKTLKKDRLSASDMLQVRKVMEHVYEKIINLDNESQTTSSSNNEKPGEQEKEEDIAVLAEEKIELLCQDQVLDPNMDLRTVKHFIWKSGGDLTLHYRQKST

For `COc1ncnc(C2CC2)c1-c1cc2n(n1)CCC(=O)N2Cc1ccc(-c2nc(C(F)(F)F)cn2C(C)C)c(F)c1` [Example 18, 2-(4-cyclopropyl-6-methoxypyrimidin-5-yl)-4-(3-fluoro-4-(1-isopropyl-4-(trifluoromethyl)-1H-imidazol-2-yl)benzyl)-6,7-dihydropyrazolo[1,5-a]pyrimidin-5(4H)-one], the pIC50 (on USP1/UAF1 enzyme; in data set [1]) was over 7.00 throughout. In addition, the solubility at 24 h in data set [2] (setting [5]) and in data set [2] (setting [6]) was under 10 µM each time. The half-life at 1 μM in data set [3] and in data set [4] was over 25 min in each case.

On to `CCn1cc(C(F)(F)F)nc1-c1ccc(O[C@@H]2CCCn3nc(-c4c(OC)ncnc4C4CC4)cc32)cc1F` (single isomer, unassigned) [Example 264], for which the pIC50 on USP1/UAF1 enzyme is over 7.00; in data set [1], 6.30 to 7.00. The solubility at 24 h in data set [2] (setting [5]) is at least 10 µM; in data set [2] (setting [6]), under 10 µM. Moreover, the half-life at 1 μM in data set [3] and in data set [4] was over 25 min in each case.

Take `CCn1cc(C(F)(F)F)nc1-c1ccc(COC2CCCn3nc(-c4c(Cl)cnn4C(C)C)cc32)cc1` (stereo not drawn) [Example 270, 2-(4-chloro-1-isopropyl-1H-pyrazol-5-yl)-4-((4-(1-ethyl-4-(trifluoromethyl)-1H-imidazol-2-yl)benzyl)oxy)-4,5,6,7-tetrahydropyrazolo[1,5-α]pyridine]: the negative-log IC50 (pIC50) (at USP1/UAF1 enzyme; in data set [1]) was over 7.00 throughout. For the same compound, the solubility at 24 h in data set [2] (setting [5]) and in data set [2] (setting [6]) was under 10 µM in each case. The half-life at 1 μM in data set [3] and in data set [4] was under 25 min throughout.

As to `CCn1cc(C(F)(F)F)nc1-c1ccc(CN2C(=O)[C@H](C)Cn3nc(-c4c(OC)ncnc4C4CC4)nc32)cc1F` (single isomer, unassigned) [Example 348], the pIC50 (at USP1/UAF1 enzyme; in data set [1]) was over 7.00 each time. For the same compound, the solubility at 24 h in data set [2] (setting [5]) and in data set [2] (setting [6]) was at least 10 µM throughout. The half-life at 1 μM in data set [3] and in data set [4] was over 25 min throughout.

Regarding `CCn1cc(C(F)(F)F)nc1-c1ccc(CN2C(=O)CCn3nc(-c4c(OC)ncnc4C4CC4)nc32)cc1F` [Example 44], the pIC50 (at USP1/UAF1 enzyme; in data set [1]) was over 7.00 each time. Besides, the solubility at 24 h in data set [2] (setting [5]) and in data set [2] (setting [6]) was under 10 µM in each case. In addition, the half-life at 1 μM in data set [3] and in data set [4] was over 25 min in each case.

Take `COc1nccc(C2CC2)c1-c1nc2n(n1)CCC(=O)N2Cc1ccc(-c2nc(C(F)(F)F)cn2C(C)C)c(F)c1` [Example 213]: the pIC50 at USP1/UAF1 enzyme was over 7.00; in data set [1], 6.30 to 7.00. For the same compound, the solubility at 24 h in data set [2] (setting [5]) and in data set [2] (setting [6]) was under 10 µM each time. In addition, the half-life at 1 μM in data set [3] and in data set [4] was over 25 min throughout.

On to `CCn1cc(C(F)(F)F)nc1-c1ccc(CN2C(=O)CCn3nc(-c4c(OC)ncnc4C4CC4)nc32)cc1Cl` [Example 175], for which the negative-log IC50 (pIC50) (at USP1/UAF1 enzyme; in data set [1]) was over 7.00 in each case. The solubility at 24 h in data set [2] (setting [5]) and in data set [2] (setting [6]) was at least 10 µM in each case. The half-life at 1 μM in data set [3] and in data set [4] was over 25 min each time.

For the compound `CC(C)n1ncc(Cl)c1-c1cc2n(n1)CCCN2Cc1ccc(-c2nc(C(F)(F)F)cn2CCF)cc1` [Example 62], the negative-log IC50 (pIC50) (on USP1/UAF1 enzyme; in data set [1]) was over 7.00 each time. Moreover, the solubility at 24 h in data set [2] (setting [5]) and in data set [2] (setting [6]) was under 10 µM each time. For the same compound, the half-life at 1 μM in data set [3] and in data set [4] was under 25 min throughout.

`CCn1cc(C(F)(F)F)nc1-c1ccc(C(C)N2C(=O)CCn3nc(-c4c(OC)ncnc4C4CC4)cc32)cc1` (stereo not drawn) [Example 114]: the pIC50 was over 7.00 on USP1/UAF1 enzyme and 6.30 to 7.00 in data set [1]. The solubility at 24 h in data set [2] (setting [5]) and in data set [2] (setting [6]) was at least 10 µM in each case. Besides, the half-life at 1 μM was under 25 min in data set [3] and over 25 min in data set [4].

As to `CC(C)n1ncc(Cl)c1-c1cc2n(n1)CC(C)(O)C(=O)N2Cc1ccc(-c2nc(C(F)(F)F)cn2C)cc1` (stereo not drawn) [Example 232, 2-(4-chloro-1-isopropyl-1H-pyrazol-5-yl)-6-hydroxy-6-methyl-4-(4-(1-methyl-4-(trifluoromethyl)-1H-imidazol-2-yl)benzyl)-6,7-dihydropyrazolo[1,5-α]pyrimidin-5(4H)-one], the negative logarithm of the IC50 (pIC50) (on USP1/UAF1 enzyme; in data set [1]) was 6.30 to 7.00 in each case. Further, the solubility at 24 h in data set [2] (setting [5]) and in data set [2] (setting [6]) was under 10 µM each time. Also, the half-life at 1 μM in data set [3] and in data set [4] was over 25 min throughout.

Take `CCn1cc(C(F)(F)F)nc1-c1ccc([C@H](C)N2C(=O)CCn3nc(-c4c(Cl)cnn4C(C)C)nc32)cc1` [Example 193]: the pIC50 (on USP1/UAF1 enzyme; in data set [1]) was over 7.00 each time. For the same compound, the solubility at 24 h in data set [2] (setting [5]) and in data set [2] (setting [6]) was under 10 µM each time. The half-life at 1 μM in data set [3] and in data set [4] was under 25 min throughout.

Take `CCn1cc(C(F)(F)F)nc1-c1ccc(CN2C(=O)CCn3nc(-c4c(Cl)cnn4C(C)COC)cc32)cc1F` (stereo not drawn) [Example 160]: the pIC50 is over 7.00 at USP1/UAF1 enzyme and 6.30 to 7.00 in data set [1]. Also, the solubility at 24 h in data set [2] (setting [5]) and in data set [2] (setting [6]) was under 10 µM throughout. Further, the half-life at 1 μM in data set [3] and in data set [4] was under 25 min in each case.

For `Cc1cnn(C(C)C)c1-c1cc2n(n1)CCC(=O)N2Cc1ccc(-c2nc(C(F)(F)F)nn2C)cc1` [Example 11, 2-(1-isopropyl-4-methyl-1H-pyrazol-5-yl)-4-(4-(1-methyl-3-(trifluoromethyl)-1H-1,2,4-triazol-5-yl)benzyl)-6,7-dihydropyrazolo[1,5-a]pyrimidin-5(4H)-one], the pIC50 (at USP1/UAF1 enzyme; in data set [1]) was under 6.30 in each case. Moreover, the results for the solubility at 24 h in data set [2] (setting [5]) and in data set [2] (setting [6]) were at least 10 µM and under 10 µM, respectively. Further, the half-life at 1 μM in data set [3] and in data set [4] was under 25 min throughout.

`CC1CCn2nc(-c3c(Cl)cnn3C(C)C)cc2N1Cc1ccc(-c2nc(C(F)(F)F)cn2C(C)C)c(F)c1` (stereo not drawn) [Example 50]: the pIC50 (at USP1/UAF1 enzyme; in data set [1]) was over 7.00 each time. Also, the solubility at 24 h in data set [2] (setting [5]) and in data set [2] (setting [6]) was under 10 µM in each case. For the same compound, the half-life at 1 μM in data set [3] and in data set [4] was under 25 min each time.

As for `COc1ncnc(C2CC2)c1-c1cc2n(n1)CCC(=O)N2[C@H](C)c1ccc(-c2nc(C(F)(F)F)cn2C(C)C)cc1` [Example 123], the pIC50 (on USP1/UAF1 enzyme; in data set [1]) was over 7.00 throughout. For the same compound, the solubility at 24 h is at least 10 µM in data set [2] (setting [5]) and under 10 µM in data set [2] (setting [6]). Besides, the half-life at 1 μM in data set [3] and in data set [4] was over 25 min in each case.

In the case of `CCn1cc(C(F)(F)F)nc1-c1ccc([C@H](C)N2C(=O)CCn3nc(-c4c(OC)ncnc4C4CC4)nc32)cc1Cl` [Example 211], the negative logarithm of the IC50 (pIC50) (at USP1/UAF1 enzyme; in data set [1]) was over 7.00 throughout. Besides, the figures for the solubility at 24 h in data set [2] (setting [5]) and in data set [2] (setting [6]) were at least 10 µM and under 10 µM, respectively. Moreover, the half-life at 1 μM in data set [3] was under 25 min; in data set [4], over 25 min.

For `CCn1cc(C(F)(F)F)nc1-c1ccc(NC2CCCn3nc(-c4c(Cl)cnn4C(C)C)cc32)cc1C#N` (stereo not drawn) [Example 255, 5-((2-(4-chloro-1-isopropyl-1H-pyrazol-5-yl)-4,5,6,7-tetrahydropyrazolo[1,5-a]pyridin-4-yl)amino)-2-(1-ethyl-4-(trifluoromethyl)-1H-imidazol-2-yl)benzonitrile], the results for the negative-log IC50 (pIC50) (on USP1/UAF1 enzyme; in data set [1]) were over 7.00 and 6.30 to 7.00, respectively. The solubility at 24 h in data set [2] (setting [5]) and in data set [2] (setting [6]) was under 10 µM in each case. Besides, the half-life at 1 μM is under 25 min in data set [3] and over 25 min in data set [4].

On to `CCn1cc(C(F)(F)F)nc1-c1ccc(CN2C(=O)CCn3nc(-c4c(Cl)cnn4C4(COC)CC4)cc32)cc1F` [Example 153], for which the pIC50 at USP1/UAF1 enzyme was over 7.00; in data set [1], 6.30 to 7.00. Also, the solubility at 24 h in data set [2] (setting [5]) and in data set [2] (setting [6]) was under 10 µM throughout. In addition, the half-life at 1 μM in data set [3] and in data set [4] was under 25 min in each case.

Turning to `COc1ncnc(C2CCC2)c1-c1cc2n(n1)CCC(=O)N2Cc1ccc(-c2nc(C(F)(F)F)cn2C)c(F)c1` [Example 22], the pIC50 (on USP1/UAF1 enzyme; in data set [1]) was over 7.00 throughout. For the same compound, the solubility at 24 h was at least 10 µM in data set [2] (setting [5]) and under 10 µM in data set [2] (setting [6]). Also, the half-life at 1 μM in data set [3] and in data set [4] was under 25 min each time.
